# Where two headings read alike, the source gives them in different places.
# Columns and labels:
# Assay in all cases: MIC (Minimum Inhibitory Concentration)
# Format in all cases: cell-based
# [1] = tested on: Proteus morganii; details: Morganella morganii; Proteus morganii 2241
# [2] = tested on: Rhizoctonia solani; details: Rhizoctonia solani 200-25; read-out: MIC values
# [3] = tested on: Trichophyton soudanese joyeux; details: Trichophyton soudanese joyeux 440-63; read-out: MIC values
# [4] = tested on: Candida albicans
# [5] = tested on: Trichophyton verrucosum
# [6] = tested on: Trichophyton schoenleinii; details: Trichophyton schoenleinii 435-63; read-out: MIC values
# [7] = tested on: Pasteurella multocida; details: Pasteurella multocida A 723; read-out: MIC values
# [8] = tested on: Bacillus subtilis; details: ATCC6633; Bacillus subtilis ATCC 6633
# [9] = tested on: Trichophyton quickeaneum; details: Trichophyton quickeaneum A 2040; read-out: MIC values
# [10] = tested on: Trichophyton equinum
# [11] = tested on: Fusarium solani; details: Fusarium solani A 3245; read-out: MIC values
# [12] = tested on: Streptococcus haemolyticus; details: Streptococcus haemolyticus A 1088; read-out: MIC values
# [13] = tested on: Diplococcus pneumoniae; details: Streptococcus pneumoniae; Diplococcus pneumoniae A 2783
# [14] = tested on: Staphylococcus aureus
# [15] = tested on: Fusarium (tulip); details: Fusarium (tulip) A 3253
# [16] = tested on: Trichophyton violoceum; details: Trichophyton violoceum 442-62; read-out: MIC values
# [17] = tested on: Trichophyton rubrum
# [18] = tested on: Trichophyton mentagrophytus
# [19] = tested on: Trichophyton tonsurans; details: Trichophyton tonsurans 561-50; read-out: MIC values
# [20] = tested on: Fusarium (bulb); details: Fusarium (bulb) A 3252
# [21] = tested on: Fusarium; details: Fusarium A 3241
# [22] = tested on: Penicillium islandicum; details: Talaromyces islandicus; Penicillium islandicum D 189
# [23] = tested on: Penicillium veridicatum; details: Penicillium veridicatum A 2370
# [24] = tested on: Aspergillus versiodor; details: Aspergillus versiodor Nr. 7
# [25] = tested on: Penicillium italicum; details: Penicillium italicum 278-65
# [26] = tested on: Aspergillus flavus; details: Aspergillus flavus A 2385
# [27] = tested on: Penicillium patalum; details: Penicillium patalum A 2389
# [28] = tested on: Aspergillus parasiticus
# [29] = tested on: Penicillium rubrum; details: Talaromyces ruber; Penicillium rubrum A 2395
# [30] = Candida albicans A 7, read-out: MIC values
# [31] = Candida albicans A 3140, read-out: MIC values
# [32] = Candida albicans A 3141, read-out: MIC values
# [33] = Candida albicans A 3142, read-out: MIC values
# [34] = Candida albicans A 3143, read-out: MIC values
# [35] = Candida albicans A 3144, read-out: MIC values
# [36] = Candida albicans A 3145, read-out: MIC values
# [37] = Candida albicans A 3165, read-out: MIC values
# [38] = Candida albicans A 3166, read-out: MIC values
# [39] = Candida albicans A 3167, read-out: MIC values
# [40] = Candida albicans A 3168, read-out: MIC values
# [41] = Candida albicans A 3169, read-out: MIC values
# [42] = Candida albicans A 3171, read-out: MIC values
# [43] = Candida albicans A 3184, read-out: MIC values
# [44] = Candida albicans A 3190, read-out: MIC values
# [45] = Candida albicans A 3191, read-out: MIC values
# [46] = Candida albicans A 3192, read-out: MIC values
# [47] = Candida albicans A 3194, read-out: MIC values
# [48] = Candida albicans A 3196, read-out: MIC values
# [49] = Trichophyton verrucosum 134-66, read-out: MIC values
# [50] = Trichophyton verrucosum A 2922, read-out: MIC values
# [51] = Trichophyton equinum 182-76, read-out: MIC values
# [52] = Trichophyton equinum 441-51, read-out: MIC values
# [53] = Trichophyton equinum 856-71, read-out: MIC values
# [54] = Trichophyton rubrum 218-65, read-out: MIC values
# [55] = Trichophyton rubrum 494-62, read-out: MIC values
# [56] = Trichophyton rubrum A 810, read-out: MIC values
# [57] = Trichophyton mentagrophytus 367-68, read-out: MIC values
# [58] = Trichophyton mentagrophytus 421-67, read-out: MIC values
# [59] = Trichophyton mentagrophytus A 3252, read-out: MIC values
# [60] = Trichophyton mentagrophytus R 177, read-out: MIC values
# [61] = Trichophyton mentagrophytus R 178, read-out: MIC values
# [62] = Trichophyton mentagrophytus RRL 305, read-out: MIC values
smiles,measurement,setting,value
"[C-]#[N+]C(=Cc1ccco1)S(=O)(=O)c1ccc(C)cc1 [Example 10, 2-(2-furyl)-1-isocyano-1-(4-toluenesulphonyl)-ethene]",MIC,[1],6 µg/mL
same,MIC,[2],1.5 µg/mL
same,MIC,[3],6 µg/mL
same,MIC,[4]; [30],0.2 µg/mL
same,MIC,[4]; [31],0.2 µg/mL
same,MIC,[4]; [32],0.4 µg/mL
same,MIC,[4]; [33],0.4 µg/mL
same,MIC,[4]; [34],0.2 µg/mL
same,MIC,[4]; [35],0.2 µg/mL
same,MIC,[4]; [36],0.8 µg/mL
same,MIC,[4]; [37],0.4 µg/mL
same,MIC,[4]; [38],0.4 µg/mL
same,MIC,[4]; [39],0.4 µg/mL
same,MIC,[4]; [40],0.4 µg/mL
same,MIC,[4]; [41],0.4 µg/mL
same,MIC,[4]; [42],0.4 µg/mL
same,MIC,[4]; [43],0.2 µg/mL
same,MIC,[4]; [44],0.4 µg/mL
same,MIC,[4]; [45],0.4 µg/mL
same,MIC,[4]; [46],0.2 µg/mL
same,MIC,[4]; [47],0.4 µg/mL
same,MIC,[4]; [48],0.4 µg/mL
same,MIC,[5]; [49],0.2 µg/mL
same,MIC,[5]; [50],< 0.05 µg/mL
same,MIC,[6],0.1 µg/mL
same,MIC,[7],< 1.5 µg/mL
same,MIC,[8],6 µg/mL
same,MIC,[9],3 µg/mL
same,MIC,[10]; [51],1.5 µg/mL
same,MIC,[10]; [52],< 0.05 µg/mL
same,MIC,[10]; [53],< 0.05 µg/mL
same,MIC,[11],25 µg/mL
same,MIC,[12],6 µg/mL
same,MIC,[13],6 µg/mL
same,MIC,[14]; Staphylococcus aureus A 321,12.5 µg/mL
same,MIC,[14]; Staphylococcus aureus A 355,12.5 µg/mL
same,MIC,[14]; Staphylococcus aureus A 2000,12.5 µg/mL
same,MIC,[15],12.5 µg/mL
same,MIC,[16],0.1 µg/mL
same,MIC,[17]; [54],0.1 µg/mL
same,MIC,[17]; [55],0.1 µg/mL
same,MIC,[17]; [56],< 0.05 µg/mL
same,MIC,[18]; [57],0.1 µg/mL
same,MIC,[18]; [58],1.5 µg/mL
same,MIC,[18]; [59],3 µg/mL
same,MIC,[18]; [60],1.5 µg/mL
same,MIC,[18]; [61],100 µg/mL
same,MIC,[18]; [62],0.1 µg/mL
same,MIC,[19],3 µg/mL
same,MIC,[20],25 µg/mL
"[C-]#[N+]C(=CC(C)(C)C)S(=O)(=O)c1ccc(C)cc1 [Example 4, 3,3-dimethyl-1-isocyano-1-(4-toluenesulphonyl)-1-butene]",MIC,[1],100 µg/mL
same,MIC,[3],3 µg/mL
same,MIC,[4]; [30],6 µg/mL
same,MIC,[4]; [31],12.5 µg/mL
same,MIC,[4]; [32],> 100 µg/mL
same,MIC,[4]; [33],50 µg/mL
same,MIC,[4]; [34],6 µg/mL
same,MIC,[4]; [35],50 µg/mL
same,MIC,[4]; [36],> 100 µg/mL
same,MIC,[4]; [37],50 µg/mL
same,MIC,[4]; [38],12.5 µg/mL
same,MIC,[4]; [39],50 µg/mL
same,MIC,[4]; [40],50 µg/mL
same,MIC,[4]; [41],100 µg/mL
same,MIC,[4]; [42],50 µg/mL
same,MIC,[4]; [43],100 µg/mL
same,MIC,[4]; [44],50 µg/mL
same,MIC,[4]; [45],50 µg/mL
same,MIC,[4]; [46],25 µg/mL
same,MIC,[4]; [47],> 100 µg/mL
same,MIC,[4]; [48],25 µg/mL
same,MIC,[5]; [49],< 0.05 µg/mL
same,MIC,"[5]; Trichophyton verrucosum N 3, read-out: MIC values",0.1 µg/mL
same,MIC,[6],< 0.05 µg/mL
same,MIC,[7],3 µg/mL
same,MIC,[8],12.5 µg/mL
same,MIC,[9],3 µg/mL
same,MIC,[10]; [51],3 µg/mL
same,MIC,[10]; [52],< 0.05 µg/mL
same,MIC,[10]; [53],0.2 µg/mL
same,MIC,[12],1.5 µg/mL
same,MIC,[13],6 µg/mL
same,MIC,[14]; Staphylococcus aureus A 321,12.5 µg/mL
same,MIC,[14]; Staphylococcus aureus A 355,6 µg/mL
same,MIC,[14]; Staphylococcus aureus A 2000,6 µg/mL
same,MIC,[16],0.05 µg/mL
same,MIC,[17]; [54],0.1 µg/mL
same,MIC,[17]; [55],0.8 µg/mL
same,MIC,[17]; [56],6 µg/mL
same,MIC,[18]; [57],0.2 µg/mL
same,MIC,[18]; [58],0.8 µg/mL
same,MIC,[18]; [59],1.5 µg/mL
same,MIC,[18]; [60],6 µg/mL
same,MIC,[18]; [61],> 100 µg/mL
same,MIC,[18]; [62],3 µg/mL
same,MIC,[19],1.5 µg/mL
"C[C@@H]1C/C=C/C=C/C=C/C=C/[C@H](O[C@@H]2O[C@H](C)[C@@H](O)[C@H](N)[C@@H]2O)C[C@@H]2O[C@](O)(C[C@@H](O)C[C@H]3O[C@@H]3/C=C/C(=O)O1)C[C@H](O)[C@H]2C(=O)O [natamycin, reference compound]",MIC,[21],3 µg/mL
same,MIC,[2],2.3 µg/mL
same,MIC,[3],25 µg/mL
same,MIC,[4]; [30],12.5 µg/mL
same,MIC,[4]; [31],25 µg/mL
same,MIC,[4]; [32],3 µg/mL
same,MIC,[4]; [35],3 µg/mL
same,MIC,[4]; [36],3 µg/mL
same,MIC,[4]; [37],25 µg/mL
same,MIC,[4]; [38],6 µg/mL
same,MIC,[4]; [39],1.5 µg/mL
same,MIC,[4]; [40],12.5 µg/mL
same,MIC,[4]; [41],1.5 µg/mL
same,MIC,[4]; [42],6 µg/mL
same,MIC,[4]; [45],6 µg/mL
same,MIC,[4]; [47],3 µg/mL
same,MIC,[4]; [48],6 µg/mL
same,MIC,[22],3 µg/mL
same,MIC,[5]; [49],25 µg/mL
same,MIC,[5]; [50],25 µg/mL
same,MIC,[6],25 µg/mL
same,MIC,[23],1.5 µg/mL
same,MIC,[9],12.5 µg/mL
same,MIC,[10]; [51],25 µg/mL
same,MIC,[10]; [53],6 µg/mL
same,MIC,[11],9.3 µg/mL
same,MIC,[24],6 µg/mL
same,MIC,[25],3 µg/mL
same,MIC,[26],50 µg/mL
same,MIC,[27],3 µg/mL
same,MIC,[28]; Aspergillus parasiticus A 2396,2.5 µg/mL
same,MIC values,[28]; Aspergillus parasiticus A 2397,2.5 µg/mL
same,MIC,[15],6 µg/mL
same,MIC,[16],50 µg/mL
same,MIC,[17]; [54],12.5 µg/mL
same,MIC,[17]; [55],25 µg/mL
same,MIC,[17]; [56],12.5 µg/mL
same,MIC,[18]; [57],12.5 µg/mL
same,MIC,[18]; [58],12.5 µg/mL
same,MIC,[18]; [59],100 µg/mL
same,MIC,[18]; [60],50 µg/mL
same,MIC,[18]; [61],50 µg/mL
same,MIC,[18]; [62],12.5 µg/mL
same,MIC,[29],3 µg/mL
same,MIC,[19],12.5 µg/mL
same,MIC,[20],6 µg/mL
